Reference: the supplement of paper PMC11208160

Test: recombinant barcode read abundance after kanamycin selection (control-corrected) (log10(CPM+1)); higher = more efficient recombination; sequences stand for … in AGTGCAGAGAAAATCGGCCAGTTTTCTCTGCCTGCAGTCCGCATGCCGT…AGATTTATGCAGCGGACTGCCTTTCTCCCAAAGTGATAAACCGGACAGTATCATGGACCGGTTTTCCCGGTAATCCGTATTTGCAAGGTTGGTTTCACT; site = the 11-nt target
How it was run: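 Oligos holding a promoter, target, barcode and the J23119-driven first 104 bases of the bridge RNA were Gibson-cloned into a vector that supplied the other 73 bp plus a T7-inducible recombinase. This library was co-electroporated with a donor plasmid into E. coli. Two replicates went on chloramphenicol/ampicillin LB agar (control) and two on chloramphenicol/ampicillin/kanamycin with 0.1 mM IPTG. Recombination efficiency is read from averaged, control-corrected barcode counts per million at recombinant junctions, reported as log10(CPM+1).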
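Further: IS621 recombinase and bridge RNA in Escherichia coli cells.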

| Sequence | recombinant barcode read abundance (log10) |
| --- | --- |
| GAAGTCGCTTGGGTTCTAACCTGTTGCCT (site GAAGACGCTAG) | 0.187 |
| GAAGTCGCTTGGGTTCTAACCTGTTGCCT (site GAAGCCGCTAG) | 0.508 |
| GAAGTCGCTTGGGTTCTAACCTGTTGCCT (site GAAGGCGCTAG) | 0 |
| GAAGTCGCTTGGGTTCTAACCTGTTGCCT (site GAAGTCGCTAG) | 1.78 |
| GAATATTCTTGGGTTCTAACCTGTTGCCT (site GAATATTCTAG) | 0.739 |
| GAATATTCTTGGGTTCTAACCTGTTGCCT (site GACTATTCTAG) | 0.0547 |
| GAATATTCTTGGGTTCTAACCTGTTGCCT (site GAGTATTCTAG) | 0.136 |
| GAATATTCTTGGGTTCTAACCTGTTGCCT (site GATTATTCTAG) | 0.27 |
| GAATGTCCTTGGGTTCTAACCTGTTGCAT (site GAATGTCCTAT) | 1.39 |
| GAATGTCCTTGGGTTCTAACCTGTTGCAT (site GCATGTCCTAT) | 0.0491 |
| GACAATGCTTGGGTTCTAACCTGTTGCAT (site ACGTGGACTTA) | 0.229 |
| GACAATGCTTGGGTTCTAACCTGTTGCAT (site GACAATGCTAT) | 0.105 |
| GACACAACTTGGGTTCTAACCTGTTGCCA (site CGGCTCCCTAA) | 0.208 |
| GACACAACTTGGGTTCTAACCTGTTGCCA (site GACACAACTTG) | 0.018 |
| GACACGCCTTGGGTTCTAACCTGTTGCCT (site GACACGCCTAA) | 0.301 |
| GACACGCCTTGGGTTCTAACCTGTTGCCT (site GACACGCCTAC) | 0.0669 |
| GACACGCCTTGGGTTCTAACCTGTTGCCT (site GACACGCCTAG) | 0.156 |
| GACACGCCTTGGGTTCTAACCTGTTGCCT (site GACACGCCTAT) | 0.146 |

| Sequence | recombinant barcode read abundance (log10) |
| --- | --- |
| GACACGCCTTGGGTTCTAACCTGTTGCGT (site GACACGCCTAA) | 0.205 |
| GACACGCCTTGGGTTCTAACCTGTTGCGT (site GACACGCCTAC) | 0.571 |
| GACACGCCTTGGGTTCTAACCTGTTGCGT (site GACACGCCTAG) | 0.156 |
| GACACGCCTTGGGTTCTAACCTGTTGCGT (site GACACGCCTAT) | 0.147 |
| GACACGTCTTGGGTTCTAACCTGTTGCCT (site GACACCTCTAA) | 0 |
| GACACGTCTTGGGTTCTAACCTGTTGCCT (site GACACGTCTAG) | 0.534 |
| GACAGGACTTGGGTTCTAACCTGTTGCCT (site AACACGACTAG) | 0.196 |
| GACAGGACTTGGGTTCTAACCTGTTGCCT (site GACAGGACTAG) | 1.32 |
| GACATCACTTGGGTTCTAACCTGTTGCCT (site GACATCACTAG) | 0.767 |
| GACATCACTTGGGTTCTAACCTGTTGCCT (site GACATCCCTAG) | 0.0352 |
| GACATCACTTGGGTTCTAACCTGTTGCCT (site GACATCGCTAG) | 0.192 |
| GACATCACTTGGGTTCTAACCTGTTGCCT (site GACATCTCTAG) | 0.0671 |
| GACATCCCTTGGGTTCTAACCTGTTGCCT (site GACATCACTAG) | 0.045 |
| GACATCCCTTGGGTTCTAACCTGTTGCCT (site GACATCCCTAG) | 1.45 |
| GACATCCCTTGGGTTCTAACCTGTTGCCT (site GACATCGCTAG) | 0.0465 |
| GACATCCCTTGGGTTCTAACCTGTTGCCT (site GACATCTCTAG) | 0.142 |
| GACATCTCTTGGGTTCTAACCTGTTGCCT (site GACATCACTAG) | 0.105 |
| GACATCTCTTGGGTTCTAACCTGTTGCCT (site GACATCCCTAG) | 0.00568 |
